Results from patent US20240115554A1, “METHODS FOR TREATING OBSTRUCTIVE HYPERTROPHIC CARDIOMYOPATHY” (Cytokinetics, Incorporated, priority 2022, published 2024).
“Also recorded” adds a separate entry of the source.

Columns and labels:
healthy adults = conditions: in vivo
From the text: Study Overview and Ethics. The study used a randomized, placebo-controlled, single-ascending dose (SAD) and multiple-ascending dose (MAD) design (FIG. 2). […] Dose escalation was to be stopped when this range was achieved, or when a non-tolerated dose was identified, if earlier.
Single-ascending dose (SAD) cohorts. The SAD portion of the study used a randomized, double-blind, placebo-controlled, sequential, escalating-dose design, in which participants received single-ascending oral doses of the study drug. Seven cohorts were dosed in sequence (FIG. 2).
Recommendations regarding dose escalation in the SAD cohorts—and in the MAD cohorts described below—were made by the treating investigator (who was blinded to treatment group) and endorsed or not by the Dose Level Review Committee (DLRC), who were unblinded. […] Criteria for escalation included that no more than 2 participants in a dose group developed an LVEF <50% and no individual developed an LVEF <45%.
Multiple-ascending dose (MAD) cohorts. The MAD cohorts also used a randomized, double-blind, placebo-controlled, sequential design.
Safety and tolerability. Safety was assessed by the incidence of adverse events (AEs) and by incidence of reduced LVEF. Treatment-emergent AEs (TEAE) were defined as AEs that began or increased after study drug administration. All AEs were coded using the Medical Dictionary for Regulatory Activities version 21.1 and graded using the National Cancer Institute Common Terminology Criteria for AEs (version 4.03) 5-point severity scale. Each AE was judged as either related or unrelated to the study drug by the treating investigator. Clinical laboratory tests were obtained at regular intervals in all cohorts.
For safety monitoring, participants in all cohorts had periodic echocardiograms, which were assessed by a cardiologist. In the SAD and MAD cohorts, echocardiograms were also reviewed by an echocardiography core laboratory for PD assessments, as described below. In addition, participants in all cohorts were monitored with continuous 12-lead ECG recording using Holter monitors. For safety monitoring, a single 12-lead ECG was extracted at screening, pre-dose, and periodically throughout follow-up, and interpreted by the investigator. In the SAD, MAD, and CYP2D6-PM cohorts, cardiodynamic ECGs (triplicate 10-second, 12-lead ECG recordings) were obtained prior to the corresponding PK blood and ECG intervals quantitated by qualified readers.

[1] = test system: patients with symptomatic obstructive HCM (oHCM); test: Phase 2 trial: cardiac biomarkers (NT-proBNP, hs-troponin); format: in vivo, human
Procedure: Echocardiograms obtained every 2 weeks and 2 weeks after the last dose were analyzed for several key structural and physiologic metrics and N-terminal prohormone of brain natriuretic peptide (NT-proBNP). Secondary results from the clinical study included data from Cohort 3 (n=13). […] Overall, treatment duration for each patient in the study was 10 weeks with an echocardiogram conducted 2 weeks after the last dose. Efficacy endpoints included resting and provoked LVOT gradients, NYHA class, and NT-proBNP.

[2] = test system: patients with symptomatic oHCM; test: Open-label extension: NYHA functional class; format: in vivo, human
Procedure: NYHA Functional Classification is recorded. When available, patients will complete patient-reported outcome (PRO) questionnaires: Kansas City Cardiomyopathy Questionnaire (KCCQ), Seattle Angina Questionnaire-7 (SAQ-7), EuroQol 5-Dimension 5-Level Instrument (EQ-5D-5L), Patient's Global Impression of Change (PGI-C) Scale, Clinical Global Impressions (CGI) Scale, SF-36 Physical Functioning Subscale (SF-36 PFS) as specified in Table 23.

[3] = test system: patients with symptomatic oHCM; test: Open-label extension: safety and tolerability; format: in vivo, human; conditions: for Patients with TEAE Leading to Dose Reduction / Patients with TEAE Leading to Drug Interruption / Patients with at Least One Related TEAE / Patients with at Least One Severe TEAE / Patients with at Least One TEAE / Patients with at Least One TESAE: open-label extension, preliminary safety
Procedure: An open-label extension clinical trial of aficamten in patients with symptomatic oHCM was initiated.
An open-label extension clinical trial of aficamten in patients with symptomatic oHCM was initiated. The treatment duration is anticipated to be multiple years.
Safety and tolerability are evaluated by (i) patient incidence of adverse events, (ii) patient incidence of serious adverse events, (iii) patient incidence of LVEF <50%.

[4] = test system: patients with symptomatic oHCM; test: Open-label extension: cardiac biomarkers (NT-proBNP, hs-cTnI); format: in vivo, human; conditions: Week 48
Procedure: At Weeks 4, 6, 12, and every 12 weeks thereafter, each patient has an echocardiogram or truncated echocardiogram following administration of their dose (a truncated echocardiogram at weeks 4 and 6; and an echocardiogram at week 12 and every 12 weeks thereafter) to determine whether additional dose titration is needed (see Table 21 and Table 22). Patient reported outcomes, laboratory assessments, measurements of NT-proBNP, hs-cTnI, and other biomarkers are performed at week 12 and every 12 weeks thereafter. Ambulatory cardiac monitoring is performed on weeks 48, 96, 144, 192 and 240 Cardiac magnetic resonance is monitored at weeks 48, 144 and 240. If a patient develops an LVEF <40% after the Week 2 visit, a repeat echocardiogram may be performed to confirm the initial finding (preferably within 24 hours). If the echocardiography findings are confirmed, the patient will undergo a ≥2-day drug holiday.

[5] = by week 48, Examples 3a and 3b interim

CCc1nc(-c2ccc3c(c2)CC[C@H]3NC(=O)c2cnn(C)c2)no1 [aficamten, (R)—N-(5-(5-ethyl-1,2,4-oxadiazol-3-yl)-2,3-dihydro-1H-inden-1-yl)-1-methyl-1H-pyrazole-4-carboxamide]
participants with echocardiogram-related AEs of decreased ejection fraction <45% (healthy adults; human): 3 participants
overall safety and tolerability (healthy adults): safe and well tolerated
post-dose LVEF of 1 participant with LVEF <50% (healthy adults): 46.2%
serum chemistry, hematology, urinalysis findings (healthy adults): No clinically significant serum chemistry, hematology, or urinalysis findings
patients with at least some reduction in NT-proBNP levels ([1]; 25 out of the 27 patients on aficamten): 93%
proportional reduction in NT-proBNP levels compared to placebo ([1]; week 10): 62%
patients with worsening in NYHA class from baseline ([2]; Example 3a, preliminary): No patients
patients with NYHA class improvement of one or more classes ([2]; Example 3a, up to 6 months): about 80%
patients with NYHA FC worsening [2, 5]: none
patients with ≥1 NYHA FC improvement [2, 5]: 88%
patients in NYHA class II ([2]; week 12 (baseline 47%), Example 3a): 52%
patients in NYHA class III ([2]; week 12 (baseline 53%), Example 3a): 7%
patients in NYHA class I ([2]; week 12, Example 3a): 41%
patients in NYHA class I ([2]; week 24, Example 3a): 56%
patients in NYHA class II ([2]; week 24, Example 3a): 39%
patients in NYHA class III ([2]; week 24, Example 3a): 6%
safety events deemed related to aficamten therapy by investigators ([3]; BTR/W analysis): no safety events deemed related to aficamten therapy
LVEF during recurrent alcohol induced atrial fibrillation ([3]; one patient on 15 mg): 47%
events of LVEF <50% attributed to aficamten ([3]; open label extension): no events of LVEF <50% attributed to aficamten; also recorded: no patients experienced aficamten related reduction in LVEF <50%; also recorded: no instances of systolic dysfunction (LVEF <50%) attributed to aficamten
tolerability ([3]; open label extension, Example 3a): well tolerated
Patients with TEAE Leading to Dose Reduction ([3]; N = 38): (5%)
Patients with TEAE Leading to Drug Interruption ([3]; N = 38): (3%)
Patients with at Least One Related TEAE ([3]; N = 38): (21%)
Patients with at Least One Severe TEAE ([3]; N = 38): (3%)
Patients with at Least One TEAE ([3]; N = 38): (74%)
Patients with at Least One TESAE ([3]; N = 38): (5%)
Patients with TEAE Leading to Dose Reduction ([3]; N = 38, number of patients): 2
Patients with TEAE Leading to Drug Interruption ([3]; N = 38, number of patients): 1
Patients with at Least One Related TEAE ([3]; N = 38, number of patients): 8
Patients with at Least One Severe TEAE ([3]; N = 38, number of patients): 1
Patients with at Least One TEAE ([3]; N = 38, number of patients): 28
Patients with at Least One TESAE ([3]; N = 38, number of patients): 2
NT pro-BNP reduction from baseline [4]: 70%
